Results from patent US20140296567A1, “3-HYDROXYANTHRANILIC ACID (3-HAA) THERAPY FOR PREVENTION AND TREATMENT OF HYPERLIPIDEMIA AND ITS CARDIOVASULAR COMPLICATIONS” (priority 2011, published 2014).

What was measured:
[1] = Body weight of treated mice; format: in vivo; conditions: 3-HAA 200 mg/kg i.p., 8 weeks; data not shown
Experimental: (§1) LdIr−/− mice were bred and housed in the Animal Experimentation Unit at the Center for Molecular Medicine, Karolinska University Hospital. The mice (n=7-10 per group) received 3 intra-peritoneal injections of PBS (200 μl) or 3-HAA (200 mg/Kg in PBS) per week for 6 weeks and 1 injection per week in the following two weeks (total 24 injections) and were sacrificed with CO2. The mice were fed a high-fat diet (corn starch, cocoa butter, casein, glucose, sucrose, cellulose flour, minerals and vitamins; 17.2% protein, 21% fat (62.9% saturated, 33.9 unsaturated and 3.4% polyunsaturated), 0.15% cholesterol, 43% carbohydrates, 10% H2O and 3.9% cellulose fibers; R638 Lantmännen, Sweden) starting 2 days after the start of treatment.

LdIr−/− mice [2] = assay: Lesion analysis, en face Sudan IV staining of the aortic arch; format: in vivo; conditions: 3-HAA 200 mg/kg i.p., 8 weeks on high fat diet, vs PBS; P<0.001
Experimental: Twelve weeks old LdIr−/− mice were treated with 3-HAA or PBS as control. The mice were sacrificed after 8 weeks on a Western diet. Dissected arches were stained with Sudan IV en face and % lesion area of total vessel area was calculated using Image J image analysis software (NIH, Bethesda, Md.). The additive area of all the plaques in a given aortic arch was calculated as a percent of the total surface area of the arch. (n=7 and 10, for 3-HAA or PBS respectively). ***) P<0.001.
(§2) LdIr−/− mice were bred and housed in the Animal Experimentation Unit at the Center for Molecular Medicine, Karolinska University Hospital. The mice (n=7-10 per group) received 3 intra-peritoneal injections of PBS (200 μl) or 3-HAA (200 mg/Kg in PBS) per week for 6 weeks and 1 injection per week in the following two weeks (total 24 injections) and were sacrificed with CO2. […]
En face lipid accumulation was determined in the aortic arch from 3-HAA and PBS treated mice using Sudan IV staining. […] The additive area of all the plaques in a given aortic arch was calculated as a percent of the total surface area of the arch (not including branching vessels). Quantitation of plaques was performed using Image J software (NIH, Bethesda, USA).

LdIr−/− mice [3] = assay: Plasma lipid analysis (total cholesterol, triglycerides; enzymatic colorimetric kits); format: in vivo; conditions: 3-HAA 200 mg/kg i.p., 8 weeks, high-fat diet, vs PBS; P<0.01
Experimental: It was hypothesized that induction of protective immunity, with effects on metabolism and inflammation, could be achieved by injecting 3-HAA (200 mg/kg) intraperitoneally, 3 times per week, for 8 weeks. Twelve weeks old LdIr−/− mice were treated with 3-HAA, or PBS as control. The mice were fed a high-fat diet starting 2 days after the first injection until sacrifice, 8 weeks later with CO2.
Plasma cholesterol and triglycerides were measured using enzymatic colorimetric kits according to the manufacturer's protocol. Dissected aortic arches were stained with Sudan IV en face and % lesion area of total vessel area was calculated. Additionally, the effect of 3-HAA on the uptake oxLDL was evaluated in cultures of peritoneal macrophages from 3-HAA or PBS treated mice.
as §2
Plasma cholesterol and triglycerides were measured using enzymatic colorimetric kits (Randox Lab. Ltd. Crumin, UK) according to the manufacturer's protocol.

[4] = system: peritoneal macrophages from LdIr−/− mice; assay: OxLDL uptake by peritoneal macrophages (FITC-oxLDL, flow cytometry); format: cell-based; conditions: macrophages from mice treated with 3-HAA 200 mg/Kg i.p. for 8 weeks vs PBS; 20 μg/ml FITC-oxLDL, 2 h, 37° C.; P<0.01
Experimental: Peritoneal macrophages from LdIr−/− mice injected with 3-HAA (200 mg/Kg) or PBS (8 weeks treatment) were incubated with FITC-oxLDL at a concentration of 20 μg protein/ml for 2 h at 37° C. The uptake was quantified by flow cytometry. (A) Values given are MFI of FITC-oxLDL, means±SE of triplicate wells for each mouse (n=5 and 6, for 3-HAA or PBS respectively).
LDL was labeled using a modification of a previously described method^32. Briefly, LDL (1.5-2 mg/ml) was dialyzed overnight against 500 mM NaHCO3 pH 9.5. Next, 50 μg of FITC (Sigma-Aldrich, St. Louis, Mo., USA), dissolved in DMSO (1 mg/ml), was added for each mg of protein in LDL, and incubated at room temperature for 2 hours. After incubation conjugates were separated from the free fluorochrome by gel filtration using a PD10 column (GE Healthcare, Uppsala, Sweden) and PBS for elution. FITC conjugation was evaluated by absorption spectroscopy against a FITC standard curve at 495 nm. Protein concentration was determined by Bradford assay (Biorad, Calif., USA). […] The extent of oxidation was evaluated by the TBARS assay, as described^33.
Twenty four hours after the last injection of 3-HAA or PBS, peritoneal macrophages were isolated from LdIr−/− mice by peritoneal lavage with PBS. […] The cells were analyzed on a CyAn™ ADP flow cytometer (Dako, Glostrup, Denmark).

LdIr−/− mice [5] = assay: Lipoprotein profiles of plasma (size fractionation, cholesterol per fraction); format: in vivo; conditions: 3-HAA 200 mg/kg i.p., 8 weeks
Experimental: as §1
Plasma cholesterol lipoprotein profiles were determined using a modification of the method of Okazaki et al^34. Briefly, plasma samples (50 μl) from mice treated with 3-HAA or PBS were fractionated using an HR10/30 Superose 6 column (GE Healthcare, Uppsala, Sweden) and a Discovery BIO GFC-500 as pre-column (5 cm×7.8 i.d.; Supelco®, Sigma-Aldrich, PA, USA) coupled to Prominence UFLC system (Shimadzu, Kyoto, Japan) and equilibrated with Tris-buffered saline, pH 7.4. Fractions of 200 μl were collected using Foxy Jr® fraction collector (Teledyne Isco Inc, NE, USA) and total cholesterol was determined in each fraction using enzymatic colorimetric kit (Randox Lab. Ltd. Crumin, UK).

Nc1c(O)cccc1C(=O)O [3-HAA, 2-Amino-3-hydroxybenzoic acid]
effect on body weight [1]: no effect on body weight | reduction in atherosclerotic lesion area in en face preparations of the aortic arch (LdIr−/− mice [2]): approximately 90% | reduction in plasma total cholesterol (LdIr−/− mice [3]): approx 50% | reduction in plasma triglycerides (LdIr−/− mice [3]): approx 72% | reduced uptake of FITC-oxLDL [4]: approx 79% | HDL levels (LdIr−/− mice [5]; high-fat diet, vs PBS): effectively raised HDL levels | LDL/HDL ratio (LdIr−/− mice [5]; mean±SEM, PBS group 2.3±0.24, P<0.05): 1.4±0.16 | VLDL/HDL ratio (LdIr−/− mice [5]; mean±SEM, PBS group 4.0±0.55, P<0.01): 1.4±0.31
